Publication PMC5053890 (Bioorganic & medicinal chemistry, 2016)

Molecular target: T1, GVIA iPLA2 (Homo sapiens, UniProt O60733)
T1 sequence (O60733 1-806): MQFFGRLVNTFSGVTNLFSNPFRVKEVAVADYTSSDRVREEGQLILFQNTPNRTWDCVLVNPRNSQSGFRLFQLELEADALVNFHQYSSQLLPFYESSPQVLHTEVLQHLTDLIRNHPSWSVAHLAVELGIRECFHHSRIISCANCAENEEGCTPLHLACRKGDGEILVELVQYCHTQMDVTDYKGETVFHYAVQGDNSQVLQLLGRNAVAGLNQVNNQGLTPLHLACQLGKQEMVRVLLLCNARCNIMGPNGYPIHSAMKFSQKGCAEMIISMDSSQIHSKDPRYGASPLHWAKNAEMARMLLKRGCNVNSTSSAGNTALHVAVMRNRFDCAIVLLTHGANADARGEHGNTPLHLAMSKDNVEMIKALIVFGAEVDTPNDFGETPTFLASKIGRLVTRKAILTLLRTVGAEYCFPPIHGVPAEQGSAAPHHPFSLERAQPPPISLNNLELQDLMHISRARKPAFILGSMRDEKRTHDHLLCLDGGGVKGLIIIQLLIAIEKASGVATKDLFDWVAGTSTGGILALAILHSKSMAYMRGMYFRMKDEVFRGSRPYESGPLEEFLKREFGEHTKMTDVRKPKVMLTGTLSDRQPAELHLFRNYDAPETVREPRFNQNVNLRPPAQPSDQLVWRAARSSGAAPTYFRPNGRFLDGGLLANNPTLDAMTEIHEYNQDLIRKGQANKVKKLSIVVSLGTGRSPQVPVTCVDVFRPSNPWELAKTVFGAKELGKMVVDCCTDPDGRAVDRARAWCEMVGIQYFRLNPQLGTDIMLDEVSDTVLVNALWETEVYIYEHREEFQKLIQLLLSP
Assay: hydrogen/deuterium exchange mass spectrometry
Type: binding

In the case of `CCCCCCCCSCC(=O)C(F)(F)F` [Compound 3], the “Average % Deuteration (Presence of OTFP)” value (peptide region 481-493) is reported as 27%, the “Average % Deuteration (Presence of OTFP)” value (peptide region 514-524) is reported as 48% and the “Average % Deuteration (Presence of OTFP)” value (peptide region 542-562) is reported as 51%. The “Average % Deuteration (Presence of OTFP)” value (peptide region 630-655) was 48%, the “Average % Deuteration (Presence of OTFP)” value (peptide region 656-664) was 49% and the “Average % Deuteration (Presence of OTFP)” value (peptide region 770-778) was 43%.
